The text below walks through data of patent EP0846119B1, “THIENOPYRIMIDINE DERIVATIVES, THEIR PRODUCTION AND USE AS ENDOTHELIN ANTAGONISTS” (Takeda Chemical Industries, Ltd., priority 1995, dated 1997).

Test [1] has as its system coronary artery where ETA is expressed. Nature of the test: Inhibition Test on coronary artery where ETA is expressed (ET-1-induced constriction of ring samples). Conditions: porcine coronary artery ring, pre-treatment 30 minutes, relative to vehicle group. On the procedure:
Inhibition Test on coronary artery where ETA is expressed:
3-mm ring samples for vehicle group and drug-treating group were prepared by removing fat and connective tissue from coronary artery enucleated from porcine heart and obtained from the adjacent portions thereof. The samples, hanging in Magnus tube filled with Krebs solution, were stabilized for 90 minutes under 2 g of static tension. After subjecting the samples to constriction for 10 minutes by potassium chloride (KCl) (60 mM) to obtain the maximum reaction, the samples were then washed and stabilized for 60 minutes. […]
The constriction efficiency (% KCl) of ET-1 was calculated as a relative value to KCl constriction of each sample which was regarded as 100%. Further, the inhibiting efficiency was calculated from the constriction efficiency of the drug-treating group calculated as a relative value to the constriction of the vehicle group which was regarded as 100%.

The target in test [2] is T1, human endothelin-B (ETB) receptors (Homo sapiens, UniProt P24530).
T1 construct: made in house; host or cells: Sf9 insect cells (membrane fractions)
T1 sequence (P24530 27-442): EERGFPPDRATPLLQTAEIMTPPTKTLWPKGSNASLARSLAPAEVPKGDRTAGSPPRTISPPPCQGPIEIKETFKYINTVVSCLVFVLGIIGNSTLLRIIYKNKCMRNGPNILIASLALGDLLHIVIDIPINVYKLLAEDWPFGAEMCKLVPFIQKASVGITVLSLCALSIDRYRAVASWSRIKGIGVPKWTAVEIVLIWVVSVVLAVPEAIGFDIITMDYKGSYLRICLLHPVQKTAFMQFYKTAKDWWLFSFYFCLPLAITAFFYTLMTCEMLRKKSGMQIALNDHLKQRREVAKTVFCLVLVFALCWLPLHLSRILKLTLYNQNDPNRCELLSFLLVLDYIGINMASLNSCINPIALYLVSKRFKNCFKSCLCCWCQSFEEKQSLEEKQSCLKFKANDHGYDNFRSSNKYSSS
Put plainly: Binding Test to ETB receptor expressed in an insect cell Sf9 ([125I]endothelin-1 displacement). The protocol:
Binding Test to ETB receptor expressed in an insect cell Sf9:
Endothelin (ET) receptors were prepared by diluting fractions of insect cell (Sf9) membrane having human endothelin-B (ETB) receptors expressed, with an assay buffer {200 mM Tris-HCl, 2 mM EGTA (ethylenegiycol bis(2-aminoethylether) tetra acetic acid), 5 mM magnesium acetate, 0.1% BSA (bovine serum albumin), 0.03% NaN3, 0.5 mM PMSF(phenyl methyl sulfonyl fluoride), 20 µg/ml leupeptin, 4 µg/ml E-64 (products of the Peptide Institute), 1 µg/ml pepstatin, (pH 7.2)} respectively in a concentration of 1.4 µg/ml in the former case and 0.7 µg/ml in the latter case.
To 100 µl of each portion was added 5 nM[^125I] endothelin-1 (2 µl). A dimethylsulfoxide solution (3 µl) of the sample was added thereto and incubated at 25°C fpr 60 minutes.
And, to determine the maximum binding amount (B0) and non-specific binding amount (NSB), lots to which a dimethyl sulfoxide solution (3 µl) or a dimethyl sulfoxide solution (3 µl) containing endothelin-1 (10^-5M) had been added, were also incubated.
These lots were supplemented with 0.05% CHAPS(3-[(3-chloroamidopropyl)dimethylammonio]-1-propanesulfonate)-assay buffer (1.5 ml), subjected to filtration through a glass fiber filter GF/F (trade name; product of Whatman Ltd. (England)), and then washed with the same buffer (1.5 ml).
Radioactivity on the filter was counted in a gamma-counter to determine the Percent Maximum Binding (PMB) in accordance with the aforesaid calculation formula. The concentration causing PMB=50% was determined as IC50 value.

In test [3] the test system is coronary vein where ETB is expressed. Put plainly: Inhibition Test on coronary vein where ETB is expressed (S6c-induced constriction of ring samples). Conditions: Sus scrofa, porcine coronary vein ring, pre-treatment 30 minutes, relative to vehicle group, read-out: % inhibition (MEAN ± S.E.M.) (n=) vein (S6c 1 nM); for inhibition at 0.1 µM: compound 0.1 µM; for inhibition at 10 µM: compound 10 µM. The protocol: Inhibition Test on coronary vein where ETB is expressed:
3-mm ring samples for vehicle group and drug-treating group were prepared by removing fat and connective tissue from coronary vein enucleated from porcine heart and obtained from the adjacent portions thereof. The samples, hanging in Magnus tube filled with Krebs solution, were stabilized for 90 minutes under 0.5 g static tension. After subjecting the samples to constriction for 10 minutes by potassium chloride (KCl) (60 mM) to obtain the maximum reaction, the samples were washed and stabilized for 60 minutes. After pre-treating compound obtained in Example 5 or Compound 16 of Example 11 or vehicle (H2O) for 30 minutes, S6c (1 nM) (S6c: sarafotoxin S6c, peptide type snake toxin consisting of 21 amino acids, it is useful for the selective agonist to ETB receptor owing to the similarity of its structure to endothelin) was added to observe the maximum constriction.
The constriction efficiency (% KCl) of S6c was calculated as a relative value to KCl constriction of each sample which was regarded as 100%. Further, the inhibiting efficiency was calculated from the constriction efficiency of the drug-treating group calculated as a relative value to the constriction of the vehicle group which was regarded as 100%.

Test [4] addresses T2, human ETB endothelin receptor (Homo sapiens, UniProt P24530).
T2 construct: expressed in transfected cells; host or cells: CHO cells (clone ETB 12)
T2 sequence (P24530 27-442): T1 sequence (P24530 27-442)
Nature of the test: Binding Test to ETB receptor expressed in CHO cell (ET-1-stimulated [3H]arachidonic acid release). The class given is cell-based. Conditions: CHO cell expressing human ETB (ETB 12 cells), final concentration of ET-1 6.3x10^-10M, n=2. The protocol:
Binding Test to ETB receptor expressed in CHO cell:
cells: CHO cell expressing human ETB endothelin receptor, i.e. ETB 12 cells medium: DMEM 10% FCS Gln, nonessential amino acids, penicillin, streptomycin
Cells were seeded in 12 wells of 24 well plates at a density of 2x10^5 cells/well (1 ml medium/well). On the next day, [^3H]arachidonic acid was added to each well to be 250 nCi(nanocurie)/ml. On the next day, the medium was sucked from the wells by the use of an aspirator to remove free arachidonic acid and floating cells, and then 0.5 ml of medium was added. This procedure was repeated agian. After allowing to stand for 30minutes in a CO2 incubator, the medium was exchanged rapidly.
The sample of compound obtained in Example 5 or compound 16 of Example 11 was stepwise diluted with a buffer solution for dilution, containing 3.15x10^-8M endothelin-1 (ET-1) {20 mM Tris, 5mM Mg(AcO)2, 2 mM EGTA, 0.03% NaN3, 0.1% BSA, 0.05% CHAPS}. 10 µl of the solution was added to each well (final concentration of ET-1: 6.3x10^-10M). […] After allowing to-stand for 30 minutes in the CO2 incubator, the medium was completely collected and the radio activity of [^3H]arachidonic acid released in the medium was measured by a liquid scintillation counter. IC50 values were calculated by Hill Plot from the concentration and relative reaction value of each sample.

The mark [5] stands for this setting: Sf9 membrane fractions, [125I]endothelin-1, 25°C, 60 minutes, concentration causing PMB=50%, read-out: IC50 value: µM Human endotherin-B receptor.
The mark [6] stands for this setting: Table 6, values recur in Table 8, read-out: Binding IC50 (µM) ETB.

Each structure is given as a SMILES string. Like-named read-outs stand apart in the source and are kept apart here.

For orientation: IC50 means the concentration that gives 50% inhibition. For orientation: inhibition means the relative decrease from the control value, in per cent. For the compound `CCS(=O)(=O)NCc1c(-c2ccc(OCOC)cc2)sc2c1c(=O)n(CC(=O)O)c(=O)n2Cc1ccccc1SC` [11(16), 2,4(1H,3H)-Dioxo-6-(4-methoxymethoxyphenyl)-1-(2-methylthiobenzyl)-5-(ethanesulfonamidomethyl)thieno[2,3-d]pyrimidine-3-acetic acid], the “% inhibition (MEAN ± S.E.M.) (n=) artery (ET-1 3nM)” value in test [1] (compound 1 µM) is 33.1 ± 8.6 (4) %. Moreover, the half-inhibitory concentration (IC50) was 0.054 µM in test [2] (setting [5]), 0.054 µM in test [2] (setting [6]) and 130 nM in test [4]. Besides, the inhibition at 0.1 µM in test [3] amounted to 53.3 ± 4.4%. Also, in test [3], the inhibition at 10 µM came out at 98 ± 1.1%.
With `COCOc1ccc(-c2sc3c(c2CNS(C)(=O)=O)c(=O)n(CC(=O)O)c(=O)n3Cc2ccccc2SC)cc1` [Example 5, 2,4(1H,3H)-dioxo-6-(4-methoxymethoxyphenyl)-1-(2-methylthiobenzyl)-5-(methanesulfonamidomethyl)thieno[2,3-d]pyrimidine-3-aretic acid], the “% inhibition (MEAN ± S.E.M.) (n=) artery (ET-1 3nM)” value in test [1] (compound 0.1 µM) is on record as 7.6 ± 37.3 (3) %; in test [1] (compound 1 µM), 78.1 ± 11.9 (4) %. For the same compound, the IC50 in test [2] (setting [5]) was 0.2 µM; in test [2] (setting [6]) it was 0.1 µM; in test [4] it was 490 nM. In test [3], the inhibition at 0.1 µM came to 73.4 ± 3.1%. In test [3], the inhibition at 10 µM was 100%.
